Reference: patent publication US11484029B2, “Method for controlling building-inhabiting pest and composition for controlling building-inhabiting pest” (priority 2017, dated 2022)

Key:
[1] = system: bed bug (Cimex lectularius); assay: Drug efficacy test, topical application (50% lethal dose); format: in vivo; conditions: for 50% lethal dose: female adult, topical application, mortality three days later
Description: (§1) Test drug: a compound represented by Formula (2)
(§2) Test insect: Watarida colony (susceptible strain) of German cockroach (Blattella germanica); Hamamatsu-cho colony (resistant strain) of German cockroach (Blattella germanica); Teikyo University colony (susceptible strain) of bed bug (Cimex lectularius); and Chiba colony (resistant strain) of bed bug (Cimex lectularius),
(§3) Insecticidal test: An acetone solution of a compound represented by Formula (2) was applied to the chest of a target insect female adult by using a topical application device. The mortality was examined six days later for the German cockroach and three days later for the bed bug, and each 50% lethal dose was determined. Further, the resistance ratio was calculated by the following equation. Resistance ratio=50% lethal dose of resistant strain/50% lethal dose of susceptible strain

Denken German cockroach = assay: Forced contact with treated glass disc; format: in vivo, Blattella germanica; conditions: forcibly brought into contact with glass disc treated at 0.3 μg/cm^2, within 48 hours
Procedure: The Denken German cockroach had 100% knockdown within 48 hours when forcibly brought into contact with a glass disc that had been treated with the compound of Formula (2) and etofenprox so as to have a concentration of 0.3 μg/cm^2.

[2] = system: Denken colony (susceptible strain) of German cockroach (Blattella germanica); assay: Repellency test (treated vs non-treated shelter); format: in vivo; conditions: 0.3 μg/cm^2, after 7 days
Procedure: Sample: a compound represented by Formula (2), and etofenprox (control agent)
Test insect: Denken colony (susceptible strain) of German cockroach (Blattella germanica)
Test method: A test compound diluted with acetone was treated and dried on a glass disc having a diameter of 12 cm so as to be 0.3 μg/cm^2. A pet cup having 6 cm in inner diameter×0.5 cm in height was cut so as to have an entrance, and the pet cup was turned over and placed on the glass disc to make a shelter. A non-treated shelter and a drug-treated shelter were placed in the center of an acrylic box having 30 cm×15 cm, well water and rat feed were added as food, and 15 males and 15 females of German cockroach were released. After 7 days, the number of surviving insects, the number of dead insects, the number of agonizing insects, and the habitat were examined. Further, a KD (knockdown) rate and a repellency rate were calculated by the following equations. KD rate (%)=(the number of dead insects+the number of agonizing insects)/the number of released insects×100 Repellency rate (%)=(1−the number of cockroaches in treated area/(the number of cockroaches in treated area+the number of cockroaches in non-treated area)×100

[3] = system: Watarida colony (susceptible strain) of German cockroach (Blattella germanica); assay: Heat volatilization test; format: in vivo; conditions: 1 g of sample heated at 300° C., after 15 hours
Procedure: Sample: a compound represented by Formula (2)
Test insect: Watarida colony (susceptible strain) of German cockroach (Blattella germanica)
After 15 hours, examination of life or death was performed on the tested cockroaches, and the fatality rate was calculated.

[4] = system: German cockroach (Blattella germanica); assay: Drug efficacy test, topical application (50% lethal dose); format: in vivo; conditions: for 50% lethal dose: female adult, topical application, mortality six days later
Description: as §1, §2, §3

| SMILES | knockdown (Denken German cockroach) [%] | repellent effect (conclusion in words) [2] | Non-treated shelter Number of agonizing insects ([2]; Total (30 released)) | Non-treated shelter Number of dead insects ([2]; Total (30 released)) | Non-treated shelter Number of surviving insects ([2]; Total (30 released)) | Outside the area Number of agonizing insects ([2]; Total (30 released)) | Outside the area Number of dead insects ([2]; Total (30 released)) | Outside the area Number of surviving insects ([2]; Total (30 released)) | Treated shelter Number of agonizing insects ([2]; Total (30 released)) | Treated shelter Number of dead insects ([2]; Total (30 released)) | Treated shelter Number of surviving insects ([2]; Total (30 released)) | KD rate ([2]; Total) [%] | Non-treated shelter Number of agonizing insects ([2]; female (15 released)) | Non-treated shelter Number of dead insects ([2]; female (15 released)) | Non-treated shelter Number of surviving insects ([2]; female (15 released)) | Outside the area Number of agonizing insects ([2]; female (15 released)) | Outside the area Number of dead insects ([2]; female (15 released)) | Outside the area Number of surviving insects ([2]; female (15 released)) | Treated shelter Number of agonizing insects ([2]; female (15 released)) | Treated shelter Number of dead insects ([2]; female (15 released)) | other results |
| --- | --- | --- | --- | --- | --- | --- | --- | --- | --- | --- | --- | --- | --- | --- | --- | --- | --- | --- | --- | --- | --- |
| CCOc1ccc(C(C)(C)COCc2cccc(Oc3ccccc3)c2)cc1 [Etofenprox, etofenprox] | 100 | has a repellent effect | 0 | 0 | 29 | 0 | 1 | 0 | 0 | 0 | 0 | 3 | 0 | 0 | 15 | 0 | 0 | 0 | 0 | 0 | Resistance ratio ([1]; etofenprox to bed bugs, strains not stated): ≥ 10000; Repellency rate ([2]; Total): 100%; Treated shelter Number of surviving insects ([2]; female (15 released)): 0; KD rate ([2]; female): 0%; Repellency rate ([2]; female): 100%; Non-treated shelter Number of agonizing insects ([2]; male (15 released)): 0; Non-treated shelter Number of dead insects ([2]; male (15 released)): 0; Non-treated shelter Number of surviving insects ([2]; male (15 released)): 14; Outside the area Number of agonizing insects ([2]; male (15 released)): 0; Outside the area Number of dead insects ([2]; male (15 released)): 1; Outside the area Number of surviving insects ([2]; male (15 released)): 0; Treated shelter Number of agonizing insects ([2]; male (15 released)): 0; Treated shelter Number of dead insects ([2]; male (15 released)): 0; Treated shelter Number of surviving insects ([2]; male (15 released)): 0; KD rate ([2]; male): 7%; Repellency rate ([2]; male): 100% |
| CN(C(=O)c1ccccc1)c1cccc(C(=O)Nc2c(Br)cc(C(F)(C(F)(F)F)C(F)(F)F)cc2C(F)(F)F)c1F [Compound represented by Formula (2), 2-fluoro-3-(N-methylbenzamide)-N-(2-bromo-6-trifluoromethyl-4-(heptafluoropropane-2-yl)phenyl)benzamide] | 100 | has no repellent effect | 0 | 0 | 0 | 3 | 27 | 0 | 0 | 0 | 0 | 100 | 0 | 0 | 0 | 2 | 13 | 0 | 0 | 0 | fatality rate ([3]; inside the slit box): 100%; fatality rate ([3]; outside the slit box): 100%; Resistance ratio ([1]; 50% lethal dose of resistant strain (Chiba)/susceptible strain (Teikyo University)): 11.4; 50% lethal dose ([1]; Chiba colony (resistant strain)): 14.8 ng/insect; 50% lethal dose ([1]; Teikyo University colony (susceptible strain)): 1.3 ng/insect; Resistance ratio ([4]; 50% lethal dose of resistant strain (Hamamatsu-cho)/susceptible strain (Watarida)): 1.9; 50% lethal dose ([4]; Hamamatsu-cho colony (resistant strain)): 21.5 ng/insect; 50% lethal dose ([4]; Watarida colony (susceptible strain)): 11.2 ng/insect; Treated shelter Number of surviving insects ([2]; female (15 released)): 0; KD rate ([2]; female): 100%; Non-treated shelter Number of agonizing insects ([2]; male (15 released)): 0; Non-treated shelter Number of dead insects ([2]; male (15 released)): 0; Non-treated shelter Number of surviving insects ([2]; male (15 released)): 0; Outside the area Number of agonizing insects ([2]; male (15 released)): 1; Outside the area Number of dead insects ([2]; male (15 released)): 14; Outside the area Number of surviving insects ([2]; male (15 released)): 0; Treated shelter Number of agonizing insects ([2]; male (15 released)): 0; Treated shelter Number of dead insects ([2]; male (15 released)): 0; Treated shelter Number of surviving insects ([2]; male (15 released)): 0; KD rate ([2]; male): 100% |
